Assay results from ChEMBL document CHEMBL1641564, “In vitro evaluation of 5-arylidene-2-thioxo-4-thiazolidinones active as aldose reductase inhibitors” (Bioorg Med Chem Lett, 2011).

Legend:
[1] = target: Aldo-keto reductase family 1 member B1 (Bos taurus) (UniProt P16116); assay: Inhibition of bovine lens aldose reductase assessed as inhibition of […] oxidation at 16 uM by non-linear regression analysis
[2] = target: Aldo-keto reductase family 1 member B1 (Bos taurus, UniProt P16116); assay: Inhibition of bovine lens aldose reductase assessed as inhibition of […] oxidation by non-linear regression analysis
[3] = target: T1, Aldo-keto reductase family 1 member B1 (Homo sapiens, UniProt P15121); assay: Inhibition of aldose reductase
[4] = target: T1, Aldo-keto reductase family 1 member B1; assay: Inhibition of aldose reductase at 50 uM
[5] = target: Aldo-keto reductase family 1 member B1 (Bos taurus) (UniProt P16116); assay: Inhibition of bovine lens aldose reductase assessed as inhibition of […] oxidation at 13 uM by non-linear regression analysis
[6] = target: Aldo-keto reductase family 1 member B1 (Bos taurus) (UniProt P16116); assay: Inhibition of bovine lens aldose reductase assessed as inhibition of […] oxidation at 11 uM by non-linear regression analysis
[7] = target: T1, Aldo-keto reductase family 1 member B1; assay: Inhibition of aldose reductase at 37 uM

IC50 [2] [nM]	IC50 [3] [nM]	SMILES	other results
–	–	O=C1NC(=S)S/C1=C\c1ccc2ccccc2c1	inhibition [1]: 40%
110	–	O=C(O)CN1C(=O)/C(=C/c2ccc(Oc3ccccc3)cc2)SC1=S	–
2940	–	O=C1NC(=S)S/C1=C\c1cccc(Oc2ccccc2)c1	–
–	8960	O=C1NC(=O)/C(=C/c2ccc(O)cc2)S1	–
–	40800	COc1ccc(/C=C2\SC(=O)NC2=O)cc1	–
–	–	O=C1N=C(O)S/C1=C\c1ccc(OCc2ccccc2)cc1	inhibition [4]: 10%
1100	–	O=C1NC(=S)S/C1=C\c1ccc(Oc2ccccc2)cc1	–
–	–	O=C1NC(=S)S/C1=C\c1ccc(-c2ccccc2)cc1	inhibition [5]: 28%
–	130	O=C(O)CN1C(=O)S/C(=C\c2cccc(Oc3ccccc3)c2)C1=O	–
–	820	O=C(O)CN1C(=O)S/C(=C\c2ccc(Oc3ccccc3)cc2)C1=O	–
–	6140	O=C1NC(=O)/C(=C/c2cccc(Oc3ccccc3)c2)S1	–
–	480	COc1cccc(/C=C2\SC(=O)N(CC(=O)O)C2=O)c1	–
130	–	O=C(O)CN1C(=O)/C(=C/c2cccc(OCc3ccccc3)c2)SC1=S	–
–	10700	O=C1NC(=O)/C(=C/c2cccc3ccccc23)S1	–
1080	–	O=C1NC(=S)S/C1=C\c1cccc(OCc2ccccc2)c1	–
–	13300	COc1cccc(/C=C2\SC(=O)NC2=O)c1	–
150	–	COc1cccc(/C=C2\SC(=S)N(CC(=O)O)C2=O)c1	–
410	–	O=C(O)CN1C(=O)/C(=C/c2cccc(Oc3ccccc3)c2)SC1=S	–
190	–	O=C(O)CN1C(=O)/C(=C/c2ccc(OCc3ccccc3)cc2)SC1=S	–
4550	–	O=C1NC(=S)S/C1=C\c1ccc(O)cc1	–
–	–	O=C1NC(=O)/C(=C/c2ccc(-c3ccccc3)cc2)S1	inhibition [4]: 20%
–	–	O=C1NC(=S)S/C1=C\c1ccc(OCc2ccccc2)cc1	inhibition [6]: 7%
5230	–	COc1ccc(/C=C2\SC(=S)NC2=O)cc1	–
–	280	O=C(O)CN1C(=O)S/C(=C\c2ccc(OCc3ccccc3)cc2)C1=O	–
6240	–	COc1cccc(/C=C2\SC(=S)NC2=O)c1	–
–	–	O=C1N=C(O)S/C1=C\c1ccc(Oc2ccccc2)cc1	inhibition [7]: 41%
2270	–	O=C1NC(=S)S/C1=C\c1cccc2ccccc12	–
